Source: the OPERA property sets (Mansouri et al. 2018)
Where a SMILES comes first, the peptide text is derived from it.

| SMILES | logP |
| --- | --- |
| CCCCN(CCCC)C1CCc2c(OC)cccc2C1C (stereo unspecified) | 5.61 |
| CCNCc1ccc(C)cc1 | 2.38 |
| COc1ccc(C2Cc3c(C)cccc3N(CCN(C)C)C(=O)C2OC(C)=O)cc1 (stereo unspecified) | 3.7 |
| CCOP(=O)(OCC)C(C)(C)[N+]([O-])=Cc1cc[n+]([O-])cc1 | -0.74 |
| CN(C)CCOc1cc2c(c3ccccc13)-c1ccccc1C2=O | 4.32 |
| CNC(C)Cc1ccc(F)cc1 (stereo unspecified) | 2.15 |
| CNC(C)Cc1ccc2c(c1)OCO2 (stereo unspecified) | 2.15 |
| CC(C)C(N)C(=O)NC(Cc1ccc(O)cc1)C(=O)O (stereo not drawn) (H-Val-Tyr-OH; configuration not given here) | -2.52 |
| CC(C)=CC1C(C(=O)OCc2cccc(S(C)(=O)=O)c2)C1(C)C (stereo unspecified) | 3.83 |
| CC(C)CC(NC(=O)C(Cc1ccc(O)cc1)NC(=O)C(N)Cc1ccc(O)cc1)C(=O)O (stereo not drawn) (H-Tyr-Tyr-Leu-OH; configuration not given here) | -1.38 |
| COC(=O)C(C)NP(=O)(OCC1C=CC(n2cc(C)c(=O)[nH]c2=O)O1)Oc1ccccc1Cl (stereo unspecified) | 1.37 |
| Cc1cccc(C)c1/C=C/c1c[nH]cn1 | 3.35 |
| CC(C)C1(C)N=C(c2ncc(CO)cc2C(=O)O)NC1=O (stereo unspecified) | -0.21 |
| Cc1nc2ccccc2c(=O)n1CC(=O)NCc1ccco1 | 1.24 |
| CC(C)CC(NC(=O)C(CC(C)C)NC(=O)CNC(=O)C(N)Cc1c[nH]c2ccccc12)C(=O)O (stereo unspecified) (H-WGLL-OH; configuration not given here) | 0.06 |
| NCC(=O)NC(Cc1ccccc1)C(=O)NC(Cc1ccc(O)cc1)C(=O)O (stereo not drawn) (H-Gly-Phe-Tyr-OH; configuration not given here) | -1.96 |
| CCNc1ccc(NC(=O)N(C)OC)cc1 | 0.83 |
| Cc1ccc(OCC2CN=C(N)O2)c(C)c1 (stereo unspecified) | 2.23 |
| COc1ccc(C(C)=O)c(O)c1 | 1.98 |
| CC(=O)OC(C)(C)C1CCC2(C)CCCC(CO)C2C1 (stereo unspecified) | 3.49 |
| O=C(O)CCCCON=C(c1ccccc1)c1ccncn1 | 2.27 |

| SMILES | logP |
| --- | --- |
| CC(C)Nc1nc(N)nc(O)n1 | 1.27 |
| Nc1nnnn1-c1ccc(O)cc1 | 0.33 |
| COC1CC(OC2C(O)CC(OC3CCC4(C)C(CCC5C4CC(O)C4(C)C(C6=CC(=O)OC6)CCC54O)C3)OC2C)OC(C)C1OC1CC(O)C(O)C(C)O1 (stereo unspecified) | 1.8 |
| CN1CC(O)N(C(=O)NC2CCCC2)C1=O (stereo unspecified) | 1.47 |
| CC(C)CCNc1ncnc2c1ncn2C1OC(CO)C(O)C1O (stereo unspecified) | 1.6 |
| CC1(C(=O)O)CSC(c2ccc(O)cc2O)=N1 (stereo unspecified) | 1.3 |
| O=C(O)Cc1c(O)cccc1Nc1c(Cl)cccc1Cl | 4.65 |
| c1ccc(Cn2cnc3ccccc32)cc1 | 2.91 |
| COc1ccc(C2Cc3c(C#N)cccc3N(CCN(C)C)C(=O)C2OC(C)=O)cc1 (stereo unspecified) | 3.3 |
| O=C1C(O)N=C(c2ccccc2)c2cc(Cl)ccc2N1CCO (stereo unspecified) | 1.53 |
| CC1CC2C3CCC4=CC(=O)C=CC4(C)C3(F)C(O)CC2(C)C1(O)C(=O)COC(=O)CC1CCCCC1 (stereo unspecified) | 4.95 |
| O=C(NP(=O)(N1CC1)N1CC1)c1ccc(F)cc1 | 0.86 |
| O=C(NC(Cc1c[nH]c2ccccc12)C(=O)O)OCC1c2ccccc2-c2ccccc21 (stereo unspecified) | 4.93 |
| C=CCN(N=O)C(=O)N(CCC)CCCCC(NC(C)=O)C(=O)NCc1ccccc1 (stereo unspecified) | 2.11 |
| O=C1c2ccccc2-c2nnc(-c3ccccc3[N+](=O)[O-])cc21 | 2.64 |
| Cc1nc2c3c(c(C(=O)N(C)C)cn2c1C)CCC(c1ccccc1F)O3 (stereo unspecified) | 3.6 |
| O=C1C=C(N2CCCCC2)C(=O)N1c1ccc(F)cc1 | 2.6 |
| CC(C)NC(=S)NS(=O)(=O)c1cnccc1NC1CCCCCC1 | 3.86 |
| O=[N+]([O-])c1ccc(CCBr)cc1 | 2.9 |
| CC(C)N(CC1CN=C(N)O1)C(C)C (stereo unspecified) | 0.98 |
| COC(=O)C(C)NP(=O)(OCC1C=CC(n2cc(C)c(=O)[nH]c2=O)O1)Oc1ccc(Cl)c(Cl)c1 (stereo unspecified) | 2.15 |

| SMILES | logP |
| --- | --- |
| CCCCCCCCOC(=O)c1cccnc1 | 4.71 |
| COc1ccc(C2Cc3c(cccc3[N+](=O)[O-])N(CCN(C)C)C(=O)C2OC(C)=O)cc1 (stereo unspecified) | 3.7 |
| c1ccc2c(c1)OCC(CCc1ncc[nH]1)O2 (stereo unspecified) | 1.99 |
| CCN(CC)CCSC(=NO)c1nc(-c2ccccc2)no1 | 3.05 |
| CC(C)(O)C1CCC2(C)CCC3(CO3)C2C1 (stereo unspecified) | 2.9 |
| Cc1cc(C(=O)O)ccc1[N+](=O)[O-] | 2.42 |
| COc1cccc(-n2nnnc2N)c1 | 0.96 |
| COC(=O)C(Cc1ccccc1)(Cc1ccccc1)S(=O)(=O)c1ccc([N+](=O)[O-])cc1 | 4.46 |
| COC(=O)c1cccc(C)c1S(=O)(=O)NC(=O)Nc1nc(OCC(F)(F)F)nc(N(C)C)n1 | 3.56 |
| CCN(CC)CCC(=O)Nc1c(C)cc(N)cc1C | 0.93 |
| CNc1ccc(S(=O)(=O)N(C)C)cc1 | 1.43 |
| CCc1ccc2c(c1)OCCOCCOCCOCCOCCO2 | 0.98 |
| Cc1ccc(C(=O)NN=Cc2c(CO)ccc(C)c2O)cc1 | 3.39 |
| Nc1nnc(-c2cccc(Cl)c2Cl)c(N)n1 | 2.57 |
| CC(=O)OCC1OC(n2cc(F)c(=O)[nH]c2=O)C(OC(C)=O)C1OC(C)=O (stereo unspecified) | -0.25 |
| O=C(NC1CCCCCC1)NS(=O)(=O)c1cnccc1NC1CCCCCCC1 | 5.35 |
| CN(C)CCOC(=O)c1ccc(C(C)(C)C)cc1 | 3.94 |
| O=S(=O)(NC(=S)NC1CCCCC1)c1cnccc1NC1CCCCCCC1 | 5.04 |
| COC1Cc2c(O)cc(O)cc2OC1c1ccc(O)c(O)c1 (stereo unspecified) | 1 |
